# Measured values taken from US20250101023A1, “HETEROARYL DERIVATIVE AND USES THEREOF” (IUCF-HYU (INDUSTRY-UNIVERSITY COOPERATION FOUNDATION …, priority 2022, published 2025).
# Assays:
# FRK/PTK5 = FRK/PTK5 (Homo sapiens (Human), UniProt P42685); experiment: Kinome-wide profiling; assay type: biochemical; conditions: read-out: % Residual Activity (mean)
# RSK3 = RSK3 (Homo sapiens (Human), UniProt Q15349); experiment: Kinome-wide profiling; assay type: biochemical; conditions: read-out: % Residual Activity (mean)
# FMS = FMS (Homo sapiens (Human), UniProt P07333); experiment: Kinome-wide profiling; assay type: biochemical; conditions: read-out: % Residual Activity (mean)
# CDK16/cyclin Y (PCTAIRE) = CDK16/cyclin Y (PCTAIRE) (Homo sapiens (Human), UniProt Q00536); experiment: Kinome-wide profiling; assay type: biochemical; conditions: read-out: % Residual Activity (mean)
# TESK1 = TESK1 (Homo sapiens (Human), UniProt Q15569); experiment: Kinome-wide profiling; assay type: biochemical; conditions: read-out: % Residual Activity (mean)
# CDK2/cyclin A = CDK2/cyclin A (Homo sapiens (Human), UniProt P24941); experiment: Kinome-wide profiling; assay type: biochemical; conditions: read-out: % Residual Activity (mean)
# DYRK2 = DYRK2 (Homo sapiens (Human), UniProt Q92630); experiment: Kinome-wide profiling; assay type: biochemical; conditions: read-out: % Residual Activity (mean)
# P38a/MAPK14 = P38a/MAPK14 (Homo sapiens (Human), UniProt Q16539); experiment: Kinome-wide profiling; assay type: biochemical; conditions: read-out: % Residual Activity (mean)
# BRSK2 = BRSK2 (Homo sapiens (Human), UniProt Q8IWQ3); experiment: Kinome-wide profiling; assay type: biochemical; conditions: read-out: % Residual Activity (mean)
# SNARK/NUAK2 = SNARK/NUAK2 (Homo sapiens (Human), UniProt Q9H093); experiment: Kinome-wide profiling; assay type: biochemical; conditions: read-out: % Residual Activity (mean)
# RIPK4 = RIPK4 (Homo sapiens (Human), UniProt P57078); experiment: Kinome-wide profiling; assay type: biochemical; conditions: read-out: % Residual Activity (mean)
# WNK3 = WNK3 (Homo sapiens (Human), UniProt Q9BYP7); experiment: Kinome-wide profiling; assay type: biochemical; conditions: read-out: % Residual Activity (mean)
# CAMK4 = CAMK4 (Homo sapiens (Human), UniProt Q16566); experiment: Kinome-wide profiling; assay type: biochemical; conditions: read-out: % Residual Activity (mean)
# TAK1 = TAK1 (Homo sapiens (Human), UniProt O43318); experiment: Kinome-wide profiling; assay type: biochemical; conditions: read-out: % Residual Activity (mean)
# CHK2 = CHK2 (Homo sapiens (Human), UniProt O96017); experiment: Kinome-wide profiling; assay type: biochemical; conditions: read-out: % Residual Activity (mean)
# LATS2 = LATS2 (Homo sapiens (Human), UniProt Q9NRM7); experiment: Kinome-wide profiling; assay type: biochemical; conditions: read-out: % Residual Activity (mean)
# RAF1 = experiment: Kinome-wide profiling; assay type: biochemical, human; conditions: 10 μM
# SK-Br3 xenograft = SK-Br3 xenograft model, anticancer efficacy; assay type: in vivo, mouse; conditions: 10 mg/kg and 20 mg/kg, i.p. twice a week
# Protocol: A mouse efficacy experiment was conducted after obtaining approval from the Laboratory Animal Ethics Committee of GenNBio (Review No.: GN-IACUC-Research 22-02-07). SK-Br3 and HCC-1954 cells (1×10^6 cells each) mixed with Matrigel (BD Biosciences) were […] injected into 5-week-old female Balb/c nude mice (Orient Bio, Seongnam, Republic of Korea). After tumors reached a size of about 100 mm^3, the compound, trastuzumab (20 mg/kg), and the like were intraperitoneally injected into mice (n=8 per group)(vehicle: 8% DMSO, 4% Tween-80, 88% PBS). The tumor size was measured twice weekly for about 4 weeks and calculated as follows. Volume (mm^3)=(a×b^2)/2; “a”, maximum diameter; “b”, vertical diameter
# WNK1 = WNK1 (Homo sapiens (Human), UniProt Q9H4A3); experiment: Kinome-wide profiling; assay type: biochemical; conditions: read-out: % Residual Activity (mean)
# LATS1 = LATS1 (Homo sapiens (Human), UniProt O95835); experiment: Kinome-wide profiling; assay type: biochemical; conditions: read-out: % Residual Activity (mean)
# CDK14/cyclin Y (PFTK1) = CDK14/cyclin Y (PFTK1) (Homo sapiens (Human), UniProt O94921); experiment: Kinome-wide profiling; assay type: biochemical; conditions: read-out: % Residual Activity (mean)
# cyclinK = experiment: Western blot, cyclinK degradation; assay type: cell-based; conditions: SK-Br3 and HCC1954 cell lines, 40 and 200 nM, 2 hours
# MNK1 = MNK1 (Homo sapiens (Human), UniProt Q9BUB5); experiment: Kinome-wide profiling; assay type: biochemical; conditions: read-out: % Residual Activity (mean)
# TAOK3/JIK = TAOK3/JIK (Homo sapiens (Human), UniProt Q9H2K8); experiment: Kinome-wide profiling; assay type: biochemical; conditions: read-out: % Residual Activity (mean)
# TLK2 = TLK2 (Homo sapiens (Human), UniProt Q86UE8); experiment: Kinome-wide profiling; assay type: biochemical; conditions: read-out: % Residual Activity (mean)
# PKCzeta = PKCzeta (Homo sapiens (Human), UniProt Q05513); experiment: Kinome-wide profiling; assay type: biochemical; conditions: read-out: % Residual Activity (mean)
# PKCg = PKCg (Homo sapiens (Human), UniProt P05129); experiment: Kinome-wide profiling; assay type: biochemical; conditions: read-out: % Residual Activity (mean)
# SYK = SYK (Homo sapiens (Human), UniProt P43405); experiment: Kinome-wide profiling; assay type: biochemical; conditions: read-out: % Residual Activity (mean)
# TNIK = TNIK (Homo sapiens (Human), UniProt Q9UKE5); experiment: Kinome-wide profiling; assay type: biochemical; conditions: read-out: % Residual Activity (mean)
# ARK5/NUAK1 = ARK5/NUAK1 (Homo sapiens (Human), UniProt O60285); experiment: Kinome-wide profiling; assay type: biochemical; conditions: read-out: % Residual Activity (mean)
# PIM1 = PIM1 (Homo sapiens (Human), UniProt P11309); experiment: Kinome-wide profiling; assay type: biochemical; conditions: read-out: % Residual Activity (mean)
# SGK1 = SGK1 (Homo sapiens (Human), UniProt O00141); experiment: Kinome-wide profiling; assay type: biochemical; conditions: read-out: % Residual Activity (mean)
# ITK = ITK (Homo sapiens (Human), UniProt Q08881); experiment: Kinome-wide profiling; assay type: biochemical; conditions: read-out: % Residual Activity (mean)
# c-MET = c-MET (Homo sapiens (Human), UniProt P08581); experiment: Kinome-wide profiling; assay type: biochemical; conditions: read-out: % Residual Activity (mean)
# MYLK4 = MYLK4 (Homo sapiens (Human), UniProt Q86YV6); experiment: Kinome-wide profiling; assay type: biochemical; conditions: read-out: % Residual Activity (mean)
# Chain of TLK2 (Q86UE8 whole entry): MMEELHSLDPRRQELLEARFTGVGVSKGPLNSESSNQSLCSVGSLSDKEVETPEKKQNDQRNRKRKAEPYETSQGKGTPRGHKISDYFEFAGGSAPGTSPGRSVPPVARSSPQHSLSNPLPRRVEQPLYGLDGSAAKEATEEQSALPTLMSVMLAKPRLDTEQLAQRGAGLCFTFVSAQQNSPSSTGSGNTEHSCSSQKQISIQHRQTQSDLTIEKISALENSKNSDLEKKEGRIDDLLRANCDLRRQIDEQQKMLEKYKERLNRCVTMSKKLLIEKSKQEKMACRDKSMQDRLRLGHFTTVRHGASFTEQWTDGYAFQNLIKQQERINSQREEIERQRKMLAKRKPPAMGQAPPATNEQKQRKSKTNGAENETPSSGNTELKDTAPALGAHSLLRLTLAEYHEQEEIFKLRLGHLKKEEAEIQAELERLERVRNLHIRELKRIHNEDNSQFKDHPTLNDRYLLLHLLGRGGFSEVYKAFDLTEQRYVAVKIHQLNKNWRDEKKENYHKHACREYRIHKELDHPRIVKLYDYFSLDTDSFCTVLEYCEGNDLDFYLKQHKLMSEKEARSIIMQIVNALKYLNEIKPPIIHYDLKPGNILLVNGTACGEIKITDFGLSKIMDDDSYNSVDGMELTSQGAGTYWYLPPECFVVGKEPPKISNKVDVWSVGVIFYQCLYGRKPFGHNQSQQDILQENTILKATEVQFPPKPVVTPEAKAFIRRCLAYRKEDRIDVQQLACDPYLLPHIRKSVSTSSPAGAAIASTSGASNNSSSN
# Chain of LATS2 (Q9NRM7 whole entry): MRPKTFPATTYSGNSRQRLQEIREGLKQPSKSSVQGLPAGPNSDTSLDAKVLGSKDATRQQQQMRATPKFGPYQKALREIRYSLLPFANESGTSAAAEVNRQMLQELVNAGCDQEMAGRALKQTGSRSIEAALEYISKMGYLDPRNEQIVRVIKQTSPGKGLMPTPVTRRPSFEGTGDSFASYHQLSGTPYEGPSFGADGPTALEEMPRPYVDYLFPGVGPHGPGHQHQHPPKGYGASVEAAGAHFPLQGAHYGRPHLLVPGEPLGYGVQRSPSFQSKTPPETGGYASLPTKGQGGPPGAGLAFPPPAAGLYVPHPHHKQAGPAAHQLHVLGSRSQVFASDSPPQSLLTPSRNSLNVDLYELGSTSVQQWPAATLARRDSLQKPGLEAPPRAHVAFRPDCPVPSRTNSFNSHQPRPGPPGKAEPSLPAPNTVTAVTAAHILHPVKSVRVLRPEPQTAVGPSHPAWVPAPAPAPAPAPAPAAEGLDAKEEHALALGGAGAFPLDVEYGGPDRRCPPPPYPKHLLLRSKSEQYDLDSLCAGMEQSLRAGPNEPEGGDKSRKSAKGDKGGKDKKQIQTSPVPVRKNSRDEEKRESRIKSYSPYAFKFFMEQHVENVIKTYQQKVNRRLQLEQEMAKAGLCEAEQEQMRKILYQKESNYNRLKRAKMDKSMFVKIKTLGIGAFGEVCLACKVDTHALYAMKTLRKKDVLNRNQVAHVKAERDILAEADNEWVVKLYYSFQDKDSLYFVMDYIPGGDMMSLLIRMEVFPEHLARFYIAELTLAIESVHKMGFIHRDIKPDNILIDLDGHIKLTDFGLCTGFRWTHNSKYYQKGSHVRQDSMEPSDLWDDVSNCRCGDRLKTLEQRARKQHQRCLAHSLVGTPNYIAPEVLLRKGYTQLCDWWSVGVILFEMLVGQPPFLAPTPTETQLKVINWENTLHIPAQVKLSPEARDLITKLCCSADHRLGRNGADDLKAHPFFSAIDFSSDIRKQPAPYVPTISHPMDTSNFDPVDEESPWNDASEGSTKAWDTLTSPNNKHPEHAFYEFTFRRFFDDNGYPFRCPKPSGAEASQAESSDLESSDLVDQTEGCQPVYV
# Chain of CAMK4 (Q16566 whole entry): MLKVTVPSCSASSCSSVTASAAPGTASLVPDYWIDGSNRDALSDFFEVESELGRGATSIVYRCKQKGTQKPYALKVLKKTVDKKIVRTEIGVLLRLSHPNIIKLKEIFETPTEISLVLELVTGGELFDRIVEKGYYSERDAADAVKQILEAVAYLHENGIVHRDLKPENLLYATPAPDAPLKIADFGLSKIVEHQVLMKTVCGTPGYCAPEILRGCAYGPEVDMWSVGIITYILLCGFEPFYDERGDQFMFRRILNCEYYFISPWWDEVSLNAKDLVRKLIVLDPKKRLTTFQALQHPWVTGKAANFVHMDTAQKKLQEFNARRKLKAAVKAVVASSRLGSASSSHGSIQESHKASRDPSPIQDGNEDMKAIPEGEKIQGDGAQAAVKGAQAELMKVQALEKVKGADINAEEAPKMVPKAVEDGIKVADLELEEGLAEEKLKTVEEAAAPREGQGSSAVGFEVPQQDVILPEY
# Chain of WNK3 (Q9BYP7 whole entry): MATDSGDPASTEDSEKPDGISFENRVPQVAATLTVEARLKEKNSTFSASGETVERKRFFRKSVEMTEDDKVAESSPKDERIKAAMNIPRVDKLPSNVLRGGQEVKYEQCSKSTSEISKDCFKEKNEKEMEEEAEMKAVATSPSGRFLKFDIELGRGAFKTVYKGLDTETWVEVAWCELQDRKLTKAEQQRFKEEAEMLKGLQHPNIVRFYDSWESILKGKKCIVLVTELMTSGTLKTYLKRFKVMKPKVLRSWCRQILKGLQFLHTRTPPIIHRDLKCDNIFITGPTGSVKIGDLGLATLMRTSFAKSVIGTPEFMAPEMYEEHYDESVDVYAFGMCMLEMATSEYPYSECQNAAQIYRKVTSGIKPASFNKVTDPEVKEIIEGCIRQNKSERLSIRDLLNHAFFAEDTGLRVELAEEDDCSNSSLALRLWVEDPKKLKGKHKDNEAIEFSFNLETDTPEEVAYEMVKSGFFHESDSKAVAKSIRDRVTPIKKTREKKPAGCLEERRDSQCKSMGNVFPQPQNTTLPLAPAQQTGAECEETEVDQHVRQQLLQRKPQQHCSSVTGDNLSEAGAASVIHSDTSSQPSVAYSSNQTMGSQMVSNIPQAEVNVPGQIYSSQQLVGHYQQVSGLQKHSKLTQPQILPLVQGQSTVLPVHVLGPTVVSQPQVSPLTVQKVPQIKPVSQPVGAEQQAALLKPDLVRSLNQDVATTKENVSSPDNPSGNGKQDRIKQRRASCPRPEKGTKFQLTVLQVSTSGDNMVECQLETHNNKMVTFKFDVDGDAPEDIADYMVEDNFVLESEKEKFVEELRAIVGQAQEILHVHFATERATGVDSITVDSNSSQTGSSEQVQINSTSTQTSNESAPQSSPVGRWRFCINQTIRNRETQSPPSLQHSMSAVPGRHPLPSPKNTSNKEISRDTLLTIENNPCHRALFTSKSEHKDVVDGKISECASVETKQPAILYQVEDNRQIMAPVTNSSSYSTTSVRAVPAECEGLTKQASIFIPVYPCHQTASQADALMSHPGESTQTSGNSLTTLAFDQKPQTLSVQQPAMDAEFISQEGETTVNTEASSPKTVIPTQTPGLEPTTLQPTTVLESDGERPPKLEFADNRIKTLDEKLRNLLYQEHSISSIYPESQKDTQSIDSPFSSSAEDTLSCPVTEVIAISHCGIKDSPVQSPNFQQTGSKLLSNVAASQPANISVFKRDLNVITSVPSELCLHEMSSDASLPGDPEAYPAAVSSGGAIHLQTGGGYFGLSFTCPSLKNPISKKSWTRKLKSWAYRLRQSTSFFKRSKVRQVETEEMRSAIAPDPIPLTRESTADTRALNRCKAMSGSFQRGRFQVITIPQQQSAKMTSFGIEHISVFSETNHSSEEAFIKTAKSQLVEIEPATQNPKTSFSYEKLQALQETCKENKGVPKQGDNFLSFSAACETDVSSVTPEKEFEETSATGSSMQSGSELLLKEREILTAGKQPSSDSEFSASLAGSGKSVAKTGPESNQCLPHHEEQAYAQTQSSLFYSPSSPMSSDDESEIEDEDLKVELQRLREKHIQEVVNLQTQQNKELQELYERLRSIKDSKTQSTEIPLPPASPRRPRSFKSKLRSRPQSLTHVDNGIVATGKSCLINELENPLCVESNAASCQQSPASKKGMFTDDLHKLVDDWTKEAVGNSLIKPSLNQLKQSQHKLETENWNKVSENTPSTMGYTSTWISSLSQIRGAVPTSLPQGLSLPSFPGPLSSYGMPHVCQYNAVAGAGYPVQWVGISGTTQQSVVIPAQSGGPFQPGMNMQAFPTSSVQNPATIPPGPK
# Chain of SNARK/NUAK2 (Q9H093 whole entry): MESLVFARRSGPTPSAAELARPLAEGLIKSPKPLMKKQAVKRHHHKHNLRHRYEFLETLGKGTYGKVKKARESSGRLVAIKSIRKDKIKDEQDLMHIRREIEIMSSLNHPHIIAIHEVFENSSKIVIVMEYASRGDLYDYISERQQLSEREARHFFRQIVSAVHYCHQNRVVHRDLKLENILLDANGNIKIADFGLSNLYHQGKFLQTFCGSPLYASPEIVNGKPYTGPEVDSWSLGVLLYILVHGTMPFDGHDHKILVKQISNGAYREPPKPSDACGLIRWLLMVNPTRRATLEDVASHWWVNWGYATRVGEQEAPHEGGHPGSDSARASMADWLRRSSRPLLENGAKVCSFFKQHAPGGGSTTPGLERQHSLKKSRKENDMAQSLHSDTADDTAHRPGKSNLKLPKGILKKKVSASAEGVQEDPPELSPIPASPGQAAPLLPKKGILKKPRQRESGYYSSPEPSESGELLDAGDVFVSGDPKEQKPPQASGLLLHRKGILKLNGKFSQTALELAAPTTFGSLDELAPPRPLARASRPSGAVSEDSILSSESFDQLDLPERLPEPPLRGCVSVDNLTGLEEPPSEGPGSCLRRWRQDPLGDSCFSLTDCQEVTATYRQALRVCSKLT
# Chain of PIM1 (P11309 whole entry): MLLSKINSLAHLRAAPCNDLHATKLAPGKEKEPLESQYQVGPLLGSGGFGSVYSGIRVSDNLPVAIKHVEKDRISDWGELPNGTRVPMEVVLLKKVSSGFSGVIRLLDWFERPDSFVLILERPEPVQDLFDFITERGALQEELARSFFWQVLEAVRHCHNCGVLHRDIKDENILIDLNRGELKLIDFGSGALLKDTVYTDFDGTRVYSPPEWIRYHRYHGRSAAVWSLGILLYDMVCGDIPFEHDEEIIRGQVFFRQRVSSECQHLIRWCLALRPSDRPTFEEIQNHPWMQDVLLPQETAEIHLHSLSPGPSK
smiles,measurement,setting,value
"CCn1cnc2c(NCc3ccc(-c4ccccn4)nc3)nc(-c3ccc(N)nc3)nc21 [Example 53, N-([2,2′-bipyridin]-5-ylmethyl)-2-(6-aminopyridin-3-yl)-9-ethyl-9H-purin-6-amine]",remaining activity at 10 µM,FRK/PTK5,43.5%
same,remaining activity at 10 µM,RSK3,58%
same,remaining activity at 10 µM,FMS,35.4%
same,remaining activity at 10 µM,CDK16/cyclin Y (PCTAIRE),17.5%
same,remaining activity at 10 µM,TESK1,93.1%
same,remaining activity at 10 µM,CDK2/cyclin A,1.19%
same,remaining activity at 10 µM,DYRK2,22.3%
same,remaining activity at 10 µM,P38a/MAPK14,84.2%
same,remaining activity at 10 µM,BRSK2,97.5%
same,remaining activity at 10 µM,SNARK/NUAK2,59%
same,remaining activity at 10 µM,RIPK4,97.8%
same,remaining activity at 10 µM,WNK3,74.5%
same,remaining activity at 10 µM,CAMK4,95.2%
same,remaining activity at 10 µM,TAK1,98.2%
same,remaining activity at 10 µM,CHK2,7.39%
same,remaining activity at 10 µM,LATS2,77.4%
same,% Residual Activity (mean),RAF1,68.57%
same,anticancer efficacy,SK-Br3 xenograft,anticancer efficacy in a dose-dependent manner
same,remaining activity at 10 µM,WNK1,82.5%
same,remaining activity at 10 µM,LATS1,85%
same,remaining activity at 10 µM,CDK14/cyclin Y (PFTK1),14%
same,cyclinK degradation,cyclinK,induced cyclinK degradation
same,cyclinK degradation,cyclinK; listed as Compound 53,cyclinK levels were greatly suppressed in a dose-dependent manner
same,remaining activity at 10 µM,MNK1,89.2%
same,remaining activity at 10 µM,TAOK3/JIK,23.1%
same,remaining activity at 10 µM,TLK2,72.2%
same,remaining activity at 10 µM,PKCzeta,90.2%
same,remaining activity at 10 µM,PKCg,49.5%
same,remaining activity at 10 µM,SYK,48.4%
same,remaining activity at 10 µM,TNIK,69%
same,remaining activity at 10 µM,ARK5/NUAK1,20.8%
same,remaining activity at 10 µM,PIM1,97.8%
same,remaining activity at 10 µM,SGK1,84.9%
same,remaining activity at 10 µM,ITK,81.7%
same,remaining activity at 10 µM,c-MET,96.4%
same,remaining activity at 10 µM,MYLK4,4.07%
